This is an account of results in article PMC4721540, “Selective activators of protein phosphatase 5 target the auto-inhibitory mechanism” (Bioscience Reports, 2015).

The target in experiment [1] is T1, PPH-5 (Caenorhabditis elegans, UniProt Q9NES8).
T1 construct: made in house
T1 sequence (Q9NES8 1-496): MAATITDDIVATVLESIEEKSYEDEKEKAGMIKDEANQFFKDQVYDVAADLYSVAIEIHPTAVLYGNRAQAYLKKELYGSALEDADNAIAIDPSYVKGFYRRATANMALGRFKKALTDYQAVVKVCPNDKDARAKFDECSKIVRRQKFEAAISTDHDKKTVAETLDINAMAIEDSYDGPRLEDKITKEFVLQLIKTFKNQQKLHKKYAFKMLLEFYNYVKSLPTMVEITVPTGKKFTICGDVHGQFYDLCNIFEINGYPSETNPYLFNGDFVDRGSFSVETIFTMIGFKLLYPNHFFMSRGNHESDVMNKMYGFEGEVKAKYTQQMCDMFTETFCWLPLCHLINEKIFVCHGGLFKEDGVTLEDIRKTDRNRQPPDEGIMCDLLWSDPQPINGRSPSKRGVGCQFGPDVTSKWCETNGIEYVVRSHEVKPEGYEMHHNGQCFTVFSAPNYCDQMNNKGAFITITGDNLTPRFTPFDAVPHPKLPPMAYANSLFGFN
As to the kind of experiment: pNPP phosphatase assay with nematode PPH-5. Format: biochemical, C. elegans. As to conditions: for kcat / fold activation: PPH-5 (C. elegans); for kcat: 60 mM pNPP, in presence of compound; for fold activation: based on kcat compared with PPH-5 basal activity; for activation of PPH-5 phosphatase activity: substances at 50 ng/ml, DMSO control. Here is the method: The compound library consisting of 10000 compounds (New Chemistry and Discovery Chemistry Collection, ChemDiv) was screened using a chromometric phosphatase assay with para-nitrophenyl phosphate (pNPP) as substrate. Phosphatase activity was determined by the conversion of pNPP to para-nitrophenole and absorption of the product at 410 nm (ε: 15100 cm^−1 M^−1). Assays were performed in 96-well plates in a PerkinElmer EnVision instrument with 50 nM of PPH-5. Reaction volume was 100 μl in a buffer of 40 mM HEPES, pH 7.5, 20 mM KCl, 5 mM MnCl2 and 1 mM DTT. The reaction was started by adding pNPP to a final concentration of 60 mM. The slope of the reaction was determined and deviations of >30% were considered potential hits leading to a collection of 76 initial compounds. […] These 76 compounds were maintained and rescreened individually in a Varian Cary 100 spectrophotometer (Agilent Technologies) in Hellma SUPRASIL precision quarz cells (10-mm path length) and 140 μl of reaction volumes. Finally, five compounds were obtained as reproducible activators and selected for further characterization.
Phosphatase assays for characterization of PP5 and PPH-5 properties were performed in 40 mM HEPES/KOH, 20 mM KCl, 5 mM MnCl2, 1 mM DTT, pH 7.5 and 60 mM pNPP at 20°C if not indicated otherwise. Phosphatase concentrations ranged from 50 to 500 nM in the assay. If indicated, the CeHsp90/DAF-21 peptide AEEDASRMEEVD was supplemented in the assay at a concentration of 60 μM. […] These concentrations were 70 μM for P5SA-1, 140 μM for P5SA-2, 50 μM for P5SA-3, 100 μM for P5SA-4 and 45 μM for P5SA-5.

Experiment [2] deals with T1, PPH-5. As to the kind of experiment: Relaxation-edited NMR binding to PPH-5. Also noted: species or system C. elegans. As to conditions: 10 μM PPH-5, phosphate buffer, 20°C, no substrate. The procedure:
NMR experiments were performed on an 800 MHz spectrometer (Bruker) with cryoprobe. The measurements were done in ^2H2O with phosphate buffer (4 mM KH2PO4, 16 mM Na2HPO4, 120 mM NaCl, pH 7.4) and 1%–5% of d6-DMSO. P5SA-2 without protein was recorded in high sensitivity experiments with a high number of scans. The CPMG sequence with an additional Watergate to suppress residual water was used. The T2 filtering time was set to 400 ms to suppress signals from slowly tumbling molecules. Peak intensities were normalized by comparing residual DMSO peaks. PPH-5 was added as indicated.

What is called kcat is the number of substrate molecules converted per active site and unit of time at saturation.

On to `CNC(=O)c1c(NC(=O)COCC(=O)Nc2sc3c(c2C(=O)NC)CCC3)sc2c1CCC2` [P5SA-5], for which, in experiment [1], the kcat amounted to 5.22 ± 0.67 s⁻¹, the fold activation amounted to 8.4 and the “activation of PPH-5 phosphatase activity” value is on record as “activate PPH-5”. Besides, the “influence of MEEVD-containing peptide on apparent affinity of activator” value in experiment [1] (PPH-5, 60 μM MEEVD-containing peptide) was “only a minor influence on the apparent affinity”.
In the case of `COc1ccc(-c2nc(Cc3ccc(Cl)cc3)no2)cc1OC` [P5SA-2], in experiment [1], the catalytic constant (kcat) amounted to 1.99 ± 0.43 s⁻¹, the fold activation is listed as 3.2 and the “activation of PPH-5 phosphatase activity” value is listed as “activate PPH-5”. The “direct binding to PPH-5 by NMR” value in experiment [2] is listed as “confirms binding of P5SA-2 to PPH-5”.
